{
  "source": "patent US7074938B2",
  "about": "“Method for the synthesis of soritin compounds” (The Regents of the University of California, priority 2002, dated 2006)",
  "assay_type_in_all_cases": "in vivo",
  "key": {"[1]": {"tested_on": "RTX-induced edema of the mouse ear", "experiment": "Inhibition of resiniferatoxin (RTX)-induced inflammation (edema) of the mouse ear", "settings": "30 min", "method": "Induction of mouse ear edema can be conducted according to known methods. See Inoue, 1-f., N. Nagata, Y. Koshffiara (1993), which is herein incorporated by reference. Soritin compounds to be tested for anti-neurogenic inflammatory activity are topically applied in acetone to the ears of mice in a solution that includes the edema-causing irritant resiniferatoxin (RTX). RTX alone (0.1 μg/ear) or in combination with various dilutions of test compound are applied to both sides of the left ears (5 mice per treatment group) and acetone is applied to all right ears. After a 30-minute incubation, the mice are sacrificed, the ears removed, and bores taken and weighed. Edema is measured by subtracting the weight of the right ear (acetone control) from the weight of the left ear (treated). Results are recorded as % decrease (inhibition) or % increase (potentiation) in edema relative to the control group edema.\nSoritin B was tested for anti-neurogenic inflammatory activity by topically applying in acetone to the ears of mice in a solution that includes the edema-causing irritant resiniferatoxin (RTX) as provided above. See Inoue, 1-f., N. Nagata, Y. Koshffiara (1993), which is herein incorporated by reference. Specifically, RTX alone (0.1 μg/ear) or in combination with various dilutions of Soritin B was applied to both sides of the left ears (5 mice per treatment group) and acetone was applied to all right ears. After a 30-minute incubation, the mice are sacrificed, the ears removed, and bores taken and weighed. Edema was measured by subtracting the weight of the right ear (acetone control) from the weight of the left ear (treated). Results were recorded as % decrease (inhibition) or % increase (potentiation) in edema relative to the control group edema."}, "test ears of mice": {"tested_on": "test ears of mice", "experiment": "Soritin B coloration and irritation when applied to mouse ear skin"}, "[2]": {"tested_on": "PMA-induced edema of the mouse ear", "experiment": "Inhibition of PMA-induced inflammation (edema) of the mouse ear", "settings": "3 h 20 min, in mg (unit assumed)", "method": "The test compound made by the method of the present invention and a known inflammatory agent, phorbol myristate acetate (PMA), are topically applied simultaneously to the left ears of mice. Three hours and 20 minutes following application, the mice are sacrificed. Both left ears and right ears are removed and standard sized bores taken. Edema (inflammation) is measured as the difference in weight between left and right ears. See Van Arman, C. G. (1974) Clin. Pharmacol. Ther. 16:900–904, which is herein incorporated by reference.\nSoritin B and a known inflammatory agent, phorbol myristate acetate (PMA), were topically applied simultaneously to the left ears of mice. Three hours and 20 minutes following application, the mice were sacrificed. Both left ears and right ears were removed and standard sized bores taken. Edema (inflammation) was measured as the difference in weight between left and right ears. See Van Arman, C. G. (1974) Clin. Pharmacol. Ther. 16:900–904, which is herein incorporated by reference."}},
  "note": "Marks after values point to notes of the source that are not given here.",
  "data": [
    {"smiles": "COC(=O)C(c1c[nH]c2ccccc12)c1c[nH]c2ccccc12", "note": "[Soritin B, bis-(1H-indol-3-yl)-acetic acid methyl ester]", "values": [
      {"measurement": "Mean edema (weight of left ear minus right ear bores)", "setting": "[1]; 3.12 μg/ear topical in acetone with RTX 0.1 μg/ear", "result": 9.1},
      {"measurement": "Mean edema (weight of left ear minus right ear bores)", "setting": "[1]; 6.25 μg/ear topical in acetone with RTX 0.1 μg/ear", "result": "6.5*"},
      {"measurement": "Mean edema (weight of left ear minus right ear bores)", "setting": "[1]; 12.5 μg/ear topical in acetone with RTX 0.1 μg/ear", "result": "3.2*"},
      {"measurement": "Mean edema (weight of left ear minus right ear bores)", "setting": "[1]; 25 μg/ear topical in acetone with RTX 0.1 μg/ear", "result": "1.7*"},
      {"measurement": "Mean edema (weight of left ear minus right ear bores)", "setting": "[1]; 50 μg/ear topical in acetone with RTX 0.1 μg/ear", "result": "1.0*"},
      {"measurement": "Redness or swelling after overnight exposure", "setting": "test ears of mice; 50 μg/ear, overnight exposure, compared to controls", "result": "did not result in any discernable redness or swelling"},
      {"measurement": "Coloration on test ears", "setting": "test ears of mice; in acetone alone and in combination with PMA or RTX, from beginning to end of the experiments", "result": "did not exhibit any discernable coloration"},
      {"measurement": "Mean edema (difference in weight between left and right ear bores)", "setting": "[2]; 3.12 μg/ear topical with PMA 2.0 μg/ear", "result": "10.0**"},
      {"measurement": "Mean edema (difference in weight between left and right ear bores)", "setting": "[2]; 6.25 μg/ear topical with PMA 2.0 μg/ear", "result": "9.7**"},
      {"measurement": "Mean edema (difference in weight between left and right ear bores)", "setting": "[2]; 12.5 μg/ear topical with PMA 2.0 μg/ear", "result": "8.6*"},
      {"measurement": "Mean edema (difference in weight between left and right ear bores)", "setting": "[2]; 25 μg/ear topical with PMA 2.0 μg/ear", "result": "5.9*"},
      {"measurement": "Mean edema (difference in weight between left and right ear bores)", "setting": "[2]; 50 μg/ear topical with PMA 2.0 μg/ear", "result": "3.4*"}
    ]}
  ]
}
